Laboratory results published in patent publication US12054510B2, “2′ and/or 5′ amino-acid ester phosphoramidate 3′-deoxy adenosine derivatives as anti-cancer compounds” (Nucana plc, priority 2014, dated 2024).

Legend:
HL-60 [1] = test: ATP ViaLight plus cell viability assay; format: cell-based, Human; details: for (FD) fold difference compared to Cordycepin = Cordycepin IC50/ProTide IC50: HL-60
Experimental: (§1) Certain compounds of the invention were subjected to further studies to test the cytotoxic activity of certain compounds of the invention and also to measure their activity against 4 haematological cancer cell lines • TdT positive CEM (Human ALL) • TdT negative K562 (Human CML) • TdT negative H1-60 (Human ANLL) • RL (CRL-2261) non-HD lymphoma • The concentrations of the active metabolite dATP (Cordycepin triphosphate) in these cell lines was also measured. • The cytotoxic activity and the intracellular 3′-dATP concentrations were also studied in the presence of hENT1, Adenosine Kinase (AK) and Adenosine Deaminase pharmacological inhibitors in CEM and RL cancer cell lines. Said inhibitors that mimic known cancer resistance mechanisms. Methods Cell Culture
(§2) HL-60, K562, CCRF-CEM and RL cell lines were cultured in RPMI-1640 medium (Sigma Aldrich, UK), which were supplemented with 10% Fetal Bovine Serum (FBS) (PAA Laboratories), 1% amphotericin B (5.5 ml) and 1% penicillin/streptomycin (5.5 ml) (PAA Laboratories) and grown in flasks at 37° C. incubator with 5% CO2.
(§3) The amount of ATP was used as a measurement of cell number and cell viability. ATP ViaLight™ plus assay kit (Lonza, USA: Product No. LT07-121) to detect ATP in cells treated in luminescence compatible 96 well plates (initial concentration of cells was 1×10^4 cells/well) with cordycepin and ProTides at concentrations of: 0, 0.1, 0.5, 1, 5 and 10 μM, followed by incubation for 72 hours at 37° C. incubator with 5% CO2. For inhibitor studies, 10 μM of NBTI or 1 μM EHNA or A-134974 was added and left for 5 minutes before adding the drugs (see section 5 for inhibitor details).
(§4) After incubation, 50 μl of cell lysis reagent was added to the 96 well plates to release the intracellular ATP, followed by 100 μl of ATP monitoring reagent (AMR). The luminescent values of each well were determined using FLUOstar OPTIMA microplate reader (BMG Labtech) which convert ATP into light by using luciferase enzyme. Therefore, the amount of luminescence produced was directly proportional to the amount of ATP.
(§5) The dose-response curves of cytotoxicity of the drugs was determined using non-linear regression analysis of percentage cell viability versus concentration and EC50 values were obtained. The intracellular assay was conducted in five replicates for each condition. Intracellular assay was determined using paired t test (two-tailed) analysis of 3′ ATP/ATP concentration and p-values were obtained. For all the analysis, Prism Software program (GraphPad Software) was used and Microsoft Powerpoint® 2013 was used to plot the results.

K562 [2] = test: ATP ViaLight plus cell viability assay; format: cell-based, Human; details: for (FD) fold difference compared to Cordycepin = Cordycepin IC50/ProTide IC50: K562
Experimental: as §1, §2, §3, §4, §5

BxPC-3 = test: Solid tumour and haematological malignancy assay (CellTiterGlo); format: cell-based; details: 72 hr
Experimental: (§6) In vitro viability assay were performed to assess the effects of compounds on cell viability in selected cell lines over 72 hr using the CellTiterGlo (CTG, Promega-G7573) assay. The tests were performed in duplicates with treatment of compounds at 9 points, 3.16 folds titration in 96 well plates over ˜72 hr. The compound starting concentrations were […]. Cell viability assay using CellTiterGlo in 96-well plate were performed. Compound treatment 72 hrs, standard growth conditions, duplicates. Compounds were dissolved to 40 mM with thawed […]. Compounds were serially diluted at 3.16 fold in thawed DMSO, and warmed to 37° C. before being dissolved in media (2 μl+200 μl). After compounds were dissolved in media, media containing compounds were warmed to 37° C. in incubator and then compounds in media were added to cell plates (50 μl+50 μl) in duplicates. The compounds' final concentrations were from 198M to 19.9 nM. All compound solubilities were checked and recorded again, then the plates were transferred to CO2 tissue culture incubator immediately and incubated for 3 days. DMSO final concentration is 0.5%.

HS445 = test: as above; format: cell-based; details: 72 hr
Experimental: as §6

Jurkat = test: as above; format: cell-based; details: for MI %: 72 hr; for IC50: Homo sapiens, 72 h, read-out: IC50 (absolute IC50)
Experimental: as §6

SW620 = test: as above; format: cell-based; details: for IC50: Homo sapiens, SW-620, 72 h, read-out: IC50 (absolute IC50); for MI %: SW620, 72 hr
Experimental: as §6

MOLT-4 [3] = test: as above; format: cell-based; details: Homo sapiens, MOLT-4, 72 h; for IC50: read-out: IC50 (absolute IC50); for Emax: read-out: MI %
Experimental: as §6

HL-60 [4] = test: CellTiterGlo cell viability assay, initial screening; format: cell-based; details: for M.I. %: maximum percentage inhibition of cell viability: HL-60, 72 hr, Table II; for IC50: Homo sapiens, HL-60, 72 h, read-out: IC50 (relative IC50)
Experimental: (§7) In vitro viability assays were performed to assess the effects of compounds on cell viability in 7 selected cell lines over 72 hr using the CellTiterGlo (CTG, Promega-G7573) assay. The tests were performed in duplicates with treatment of compounds at 9 points, 3.16 folds titration in 96 well plates over ˜72 hr. The compound starting concentrations were […]. Cell viability assay using CellTiterGlo in 96-well plate were performed. The compound treatment was 72 hrs, under standard growth conditions, and in duplicate. Compounds were dissolved to 40 mM with thawed […]. Compounds were serially diluted at 3.16 fold in thawed DMSO, and warmed to 37° C. before being dissolved in media (2 μl+200 μl). After compounds were dissolved in media (media was also warmed to 37° C.). Media containing compounds were warmed to 37° C. in incubator and then compounds in media were added to cell plates (50 μl+50 μl), in duplicates. The compounds final concentrations were from […] to 19.9 nM. All compound solubilities were checked and recorded again, then the plates were transferred to CO2 tissue culture incubator immediately and incubated for 3 days. DMSO final concentration is 0.5%.

CCRF-CEM = test: as above; format: cell-based; details: CCRF-CEM; 72 hr; Table II
Experimental: as §7

KG-1 = test: as above; format: cell-based; details: KG-1; 72 hr; Table II
Experimental: as §7

HepG2 = test: as above; format: cell-based; details: for M.I. %: maximum percentage inhibition of cell viability: HepG2, 72 hr, Table II; for IC50: Homo sapiens, HepG2, 72 h, read-out: IC50 (relative IC50)
Experimental: as §7

MCF-7 = test: as above; format: cell-based; details: MCF-7; 72 hr; Table II
Experimental: as §7

K562 [5] = test: as above; format: cell-based; details: 72 hr, Table II
Experimental: as §7

MOLT-4 [6] = test: as above; format: cell-based; details: for M.I. %: maximum percentage inhibition of cell viability: MOLT-4, 72 hr, Table II
Experimental: as §7

Structure (SMILES) | (FD) fold difference compared to Cordycepin = Cordycepin IC50/ProTide IC50 (HL-60 [1]) | (FD) fold difference compared to Cordycepin = Cordycepin IC50/ProTide IC50 (K562 [2]) | MI % (BxPC-3) | MI % (HS445) | MI % (Jurkat) | IC50 (Jurkat) | IC50 (SW620) | MI % (SW620) | IC50 (MOLT-4 [3]) | Emax (MOLT-4 [3]) | M.I. %: maximum percentage inhibition of cell viability (HL-60 [4]) | IC50 (HL-60 [4]) | M.I. %: maximum percentage inhibition of cell viability (CCRF-CEM) | M.I. %: maximum percentage inhibition of cell viability (KG-1) | M.I. %: maximum percentage inhibition of cell viability (HepG2) | M.I. %: maximum percentage inhibition of cell viability (MCF-7) | M.I. %: maximum percentage inhibition of cell viability (K562 [5]) | M.I. %: maximum percentage inhibition of cell viability (MOLT-4 [6]) | IC50 (HepG2) | further results
C[C@H](NP(=O)(OC[C@@H]1C[C@@H](O)[C@H](n2cnc3c(N)ncnc32)O1)Oc1cccc2ccccc12)C(=O)OCc1ccccc1 (stereo partly drawn) [B, (2S)-benzyl 2-(((((2S,4R,5R)-5-(6-amino-9H-purin-9-yl)-4-hydroxytetrahydrofuran-2-yl)methoxy)(naphthalen-1-yloxy)phosphoryl)amino)propanoate] | 4 | 52 | 90% | 96% | 100% | 100 to 5000 nM | 5 to 15 µM | 93% | 100 to 5000 nM | 98% | 100% | 5 to 15 µM | 100% | 100% | 95% | 99% | 97% | 100% |  | IC50 (MOLT-4 [6]; Homo sapiens, MOLT-4, 72 h, read-out: IC50 (relative IC50)): 100 to 5000 nM
COC(=O)C(C)(C)NP(=O)(OC[C@@H]1C[C@@H](O)[C@H](n2cnc3c(N)ncnc32)O1)Oc1cccc2ccccc12 (stereo partly drawn) [E, Methyl 2-(((((2S,4R,5R)-5-(6-amino-9H-purin-9-yl)-4-hydroxytetrahydrofuran-2-yl)-methoxy)(naphthalen-1-yloxy)phosphoryl)amino)-2-methylpropanoate] | 1 | 1 | 71% | 85% | 95% |  | 15 to 100 µM | 74% |  | 98% | 74% | 15 to 100 µM | 90% | 69% | 59% | 78% | 81% | 97% | 15 to 100 µM | 
CCOC(=O)CCc1ccccc1OP(=O)(N[C@@H](C)C(=O)OCc1ccccc1)OC[C@@H]1C[C@@H](O)[C@H](n2cnc3c(N)ncnc32)O1 (stereo partly drawn) [F, (2S)-benzyl 2-(((((2S,4R,5R)-5-(6-amino-9H-purin-9-yl)-4-hydroxytetrahydrofuran-2-yl)methoxy)(2-(3-ethoxy-3-oxopropyl)phenoxy)phosphoryl)amino)propanoate] | 1 | 2 | 78% | 92% | 100% | 100 to 5000 nM | 15 to 100 µM |  | 100 to 5000 nM | 98% | 100% | 15 to 100 µM | 99% | 98% | 84% | 99% | 91% | 100% | 15 to 100 µM | IC50 (HL-60 [1]; Homo sapiens, HL-60, 72 h): 8.3 µM; IC50 (K562 [2]; Homo sapiens, K562, 72 h): 6.3 µM
